Patent publication US9562899B2, “Method of detecting OXA-048 carbapenemase producing bacteria” (BIOMÉRIEUX, priority 2012, dated 2017)

Columns and labels:
[1] = system: AmpC strains; test: Temocillin MIC with EDTA in the medium (Example 2); format: cell-based, Enterobacteriaceae; conditions: Ex 2, MIC in mg/l
Description: (§1) Optimization of the Detection Specificity by Introducing Specific Inhibitors Inhibition of Class B Strains (NDM, VIM, IMP) by Adding EDTA
(§2) Identical to that used to determine the temocillin MICs by agar dilution (example 1).
(§3) For each temocillin concentration, the following concentrations of active EDTA will be tested in the form of disodium EDTA: 0, 1.77, 2.12, 2.47 and 2.83 mmol/l.
(§4) Method: identical to the method used in example 1.

[2] = system: OXA-48 strains; test: Temocillin MIC with EDTA in the medium (Example 2); format: cell-based, Enterobacteriaceae; conditions: Ex 2, MIC in mg/l
Description: as §1, §2, §3, §4

[3] = system: IMP strains; test: Temocillin MIC with EDTA in the medium (Example 2); format: cell-based, Enterobacteriaceae; conditions: Ex 2, MIC in mg/l
Description: as §1, §2, §3, §4

[4] = system: OXA-48 strains; conditions: Livermore et al., cited from earlier work
[5] = system: Non-OXA-48 strains; test: Prototype medium, strains detected (Example 3); format: cell-based, Enterobacteriaceae; conditions: Non-OXA-48 deposit of 10^6 CFU; temocillin 300 mg/l; 24 hours
Description: The media are prepared in 55 mm diameter Petri dishes. They are inoculated using a bacterial suspension in physiological saline at 0.5 McF for the non-OXA-48 strains and with a 1/100 and 1/10 000 dilution of a suspension at 0.5 McF for the OXA-48 strains. The inoculation consists of 3-quadrant streaking using a 10 μl calibrated loop: theoretical deposit of 10^4 or 10^2 CFU for the OXA-48 strains and of 10^6 CFU for the strains not producing OXA-48.
The media are incubated at 37° C. The readings will be carried out after 18 and 24 hours of incubation.
The growth density, the colony sizes and also the coloration (color and strength) are evaluated.
Reaction medium identical to the base used for example 1. A selective system comprising a mixture of antibiotics and antifungals which is specific for Gram-positives, yeasts and Gram-negatives which are non-fermenting, and also cloxacillin and EDTA, is also added.
A medium at 200 mg/l of temocillin is tested without selective system as indicated above.

## CO[C@@]1(NC(=O)C(C(=O)O)c2ccsc2)C(=O)N2[C@@H](C(=O)O)C(C)(C)S[C@@H]21 (stereo partly shown) [temocillin]
[1]; 2.12 mmol/l of active EDTA
  No. of AmpC strains with MIC ≦50: 9
[1]; 2.47 mmol/l of active EDTA
  No. of AmpC strains with MIC 150: 0
  No. of AmpC strains with MIC 200: 0
  No. of AmpC strains with MIC 300: 0
  No. of AmpC strains with MIC >300: 0
  No. of AmpC strains with MIC ≦50: 10
[1]; 2.83 mmol/l of active EDTA
  No. of AmpC strains with MIC 150: 0
  No. of AmpC strains with MIC 200: 0
  No. of AmpC strains with MIC 300: 0
  No. of AmpC strains with MIC >300: 0
  No. of AmpC strains with MIC ≦50: 10
[2]; 0 mmol/l of EDTA
  No. of OXA-48 strains with MIC 150: 0
  No. of OXA-48 strains with MIC 200: 0
  No. of OXA-48 strains with MIC 300: 3
  No. of OXA-48 strains with MIC >300: 12
  No. of OXA-48 strains with MIC ≦50: 0
[2]; 1.77 mmol/l of active EDTA
  No. of OXA-48 strains with MIC 150: 0
  No. of OXA-48 strains with MIC 200: 0
  No. of OXA-48 strains with MIC 300: 0
  No. of OXA-48 strains with MIC >300: 15
  No. of OXA-48 strains with MIC ≦50: 0
[2]; 2.12 mmol/l of active EDTA
  No. of OXA-48 strains with MIC 150: 0
  No. of OXA-48 strains with MIC 200: 0
  No. of OXA-48 strains with MIC 300: 0
  No. of OXA-48 strains with MIC >300: 15
  No. of OXA-48 strains with MIC ≦50: 0
[2]; 2.47 mmol/l of active EDTA
  No. of OXA-48 strains with MIC 150: 0
  No. of OXA-48 strains with MIC 200: 0
  No. of OXA-48 strains with MIC 300: 2
  No. of OXA-48 strains with MIC >300: 13
  No. of OXA-48 strains with MIC ≦50: 0
[2]; 2.83 mmol/l of active EDTA
  No. of OXA-48 strains with MIC 150: 1
  No. of OXA-48 strains with MIC 200: 0
  No. of OXA-48 strains with MIC 300: 3
  No. of OXA-48 strains with MIC >300: 8
  No. of OXA-48 strains with MIC ≦50: 3
[3]; 0 mmol/l of EDTA
  No. of IMP strains with MIC 150: 0
  No. of IMP strains with MIC 200: 0
  No. of IMP strains with MIC 300: 0
  No. of IMP strains with MIC >300: 1
  No. of IMP strains with MIC ≦50: 12
[3]; 1.77 mmol/l of active EDTA
  No. of IMP strains with MIC 150: 0
  No. of IMP strains with MIC 200: 0
  No. of IMP strains with MIC 300: 0
  No. of IMP strains with MIC >300: 1
  No. of IMP strains with MIC ≦50: 12
[3]; 2.12 mmol/l of active EDTA
  No. of IMP strains with MIC 150: 0
  No. of IMP strains with MIC 200: 0
  No. of IMP strains with MIC 300: 0
  No. of IMP strains with MIC >300: 1
  No. of IMP strains with MIC ≦50: 12
[3]; 2.47 mmol/l of active EDTA
  No. of IMP strains with MIC 150: 0
  No. of IMP strains with MIC 200: 0
  No. of IMP strains with MIC 300: 0
  No. of IMP strains with MIC >300: 1
  No. of IMP strains with MIC ≦50: 12
[3]; 2.83 mmol/l of active EDTA
  No. of IMP strains with MIC 150: 0
  No. of IMP strains with MIC 200: 0
  No. of IMP strains with MIC 300: 0
  No. of IMP strains with MIC >300: 1
  No. of IMP strains with MIC ≦50: 12
[4]; OXA-48 strains
  strains resistant to temocillin: 18/19
[4]; resistant strains, growth at final concentration tested of 128 mg/l
  minimum inhibitory concentration (MIC): ≥ 256 µg/mL
[5]
  No. of strains detected: 1/13
